Key:
[1] = tested on: Angiotensin I-Induced Contractions in Guinea-Pig Ileum; assay: Inhibition of Angiotensin I-induced contractions in guinea-pig ileum; details: final bath concentration 10 ng/ml; Angiotensin I 100 ng/ml; compound added 2 min before agonist; average of ilea from 5 guinea-pigs
Experimental: Segments of 1.5 cm of freshly excised and washed terminal ileum were suspended in 25-ml tissue baths containing Tyrode's solution at 31° C. and bubbled with 95% O2 -5% CO2. With an initial load of 1.0 g, the resting tension after equilibration and the responses to Angiotensin I or Angiotensin II (both at 100 ng/ml) were monitored and recorded by means of an Ealing isometric transducer and a Lectromed polygraph. Several compounds of this invention were tested in this system, adding them to the bath 2 min. before the respective agonist.
At final bath concentrations of 10 ng/ml, the inhibitory effect of the tested compounds regarding the Angiotensin I-induced contractions was determined. The obtained results are given in Table I. All % inhibitions given therein are the average of results obtained with segments of ilea from 5 guinea-pigs. At final bath concentrations of 1 μg/ml none of the tested compounds produced an appreciable modification of the contractions induced by Angiotensin II.

[2] = tested on: spontaneously hypertensive rats; assay: Antihypertensive activity in spontaneously hypertensive rats (SHR), tail cuff systolic blood pressure; type: in vivo; details: for average reduction of the SBP: 1 h after administration, significantly different from control
Experimental: In this recognized model of hypertension, male spontaneously hypertensive rats (315 to 376 g) with systolic blood pressures (SBP) >160 mm Hg were used. Systolic blood pressures were recorded on conscious animals by a tail cuff method (FS-40 blood pressure/pulse monitor). Prior to all measurements, the rats were placed in a restraining cylinder. […] The pressures were monitored again 1, 2, 3, 4 and 24 h after administration of the test compounds. A control group (n=18) was included for comparison purposes.

[3] = oral 30 mg/kg, after 2, 3, 4 and 24 h, Duncan-Kramer test, p<0.05

Structure (SMILES)	% Inhibition of Angiotensin I-induced contractions [1] [%]	average reduction of the SBP ([2]; oral 30 mg/kg) [mm Hg]	antihypertensive effect ([2]; oral 30 mg/kg, overall)	other results
C[C@H](CS)C(=O)N1CCC[C@H]1C(=O)O [Captopril, D-3-mercapto-2-methylpropanoyl-L-proline, reference compound]	28.9	17.2±8.49	–	SBP reduction versus control ([2]; oral 30 mg/kg, after 24 h): inactive
CCOC(=O)c1cccc(C(=O)N[C@@H](C)C(=O)N2CCC[C@H]2C(=O)OCC)n1 [Compound No. 8, N-[(2-Ethoxycarbonyl-6-pyridinyl)carbonyl]-L-alanyl-L-proline ethyl ester]	–	32.6±7.49	significant antihypertensive effect	SBP reduction versus control [2, 3]: significantly different from the control; antihypertensive effect ([2]; oral doses of 7.5 and 15 mg/kg): Antihypertensive effects were also observed
CCOC(=O)[C@@H]1CCCN1C(=O)[C@H](C)NC(=O)c1ccc[nH]c1=O [Compound No. 21, N-[(1,2-Dihydro-2-oxo-3-pyridinyl)carbonyl]-L-alanyl-L-prolineethyl ester]	30.7	–	significant antihypertensive effect	SBP reduction, time course ([2]; oral 30 mg/kg, monitored 1, 2, 3, 4 and 24 h): significant reduction only after 2 h; SBP reduction ([2]; oral 45 mg/kg, after 2, 3, 4 and 24 h): significant
C[C@H](NC(=O)c1cccc(Cl)n1)C(=O)N1CCC[C@H]1C(=O)O [Compound No. 24, N-[(6-Chloro-2-pyridinyl)carbonyl]-L-atanyl-L-proline]	20.6	–	–	–
C[C@H](NC(=O)c1cc[nH]c(=S)c1)C(=O)N1CCC[C@H]1C(=O)O [Compound No. 27, N-[(1,2-dihydro-2-thioxo-4-pyridinyl)carbonyl]-L-alanyl-L-proline]	18.1	28.4±3.16	significant antihypertensive effect	SBP reduction versus control [2, 3]: significantly different from the control; antihypertensive effect ([2]; oral doses of 7.5 and 15 mg/kg): Antihypertensive effects were also observed
C[C@H](NC(=O)c1ccc(=S)[nH]c1)C(=O)N1CCC[C@H]1C(=O)O [Compound No. 29, N-[(1,6-dihydro-6-thioxo-3-pyridinyl)carbonyl]-L-alanyl-L-proline]	16.2	–	–	–
C[C@H](NC(=O)c1ccc(=O)[nH]c1)C(=O)N1CCC[C@H]1C(=O)O [Compound No. 35, N-[(1,6-dihydro-6-oxo-3-pyridinyl)carbonyl]-L-alanyl-L-proline]	16.0	–	–	–

— patent US5432159A, “N-(α-substituted-pyridinyl)carbonyl dipeptide antihypertensive agents” (Lacer S.A., priority 1991, dated 1995)
